| melting point | SMILES |
| --- | --- |
| 70 to 80 °C | Cl.O=C1NC(=S)SC1Cc1cccc2c1CCC(=O)N2Cc1ccc(Cl)nc1 (stereo not drawn) |
| 222 to 224 °C | COc1ccc(CCC2SC(=O)NC2=O)c2ccc(=O)n(C)c12 (stereo not drawn) [Example 2, 5-[2-(8-methoxy-1-methyl-2-oxo-1,2-dihydroquinolin-5-yl)ethyl]thiazolidine-2,4-dione] |
| 172 to 175 °C | COc1ccc(CCCC2SC(=O)NC2=O)c2ccc(=O)n(C)c12 (stereo not drawn) [Example 3, 5-[3-(8-methoxy-1-methyl-2-oxo-1,2-dihydroquinolin-5-yl)propyl]thiazolidine-2,4-dione] |
| 255 °C (dec.) | COc1ccc(C2SC(=O)NC2=O)c2ccc(=O)n(C)c12 (stereo not drawn) [Example 4, 5-(8-methoxy-1-methyl-2-oxo-1,2-dihydroquinolin-5-yl)thiazolidine-2,4-dione] |
| ≥ 300 °C | COc1ccc(C=C2SC(=O)NC2=O)c2ccc(=O)n(C)c12 [Example 9, 5-[1-(8-Methoxy-1-methyl-2-oxo-1,2-dihydroquinolin-5-yl)methylidene]thiazolidine-2,4-dione] |
| 270 °C (dec.) | COc1ccc(C=C2SC(=O)N(C)C2=O)c2ccc(=O)n(C)c12 [Example 10, 5-[1-(8-Methoxy-1-methyl-2-oxo-1,2-dihydroquinolin-5-yl)methylidene]-3-methylthiazolidine-2,4-dione] |
| 142.1 to 143.7 °C | O=C1NC(=O)C(Cc2cc(=O)n(Cc3ccc(Cl)cc3)c3ccccc23)S1 (stereo not drawn) [Example 14, 5-[1-(4-chlorobenzyl)-2-oxo-1,2-dihydroquinolin-4-ylmethyl]thiazolidine-2,4-dione] |
| 220.4 to 221.8 °C | O=C1NC(=O)C(Cc2cc3ccccc3n(Cc3ccc(-c4ccccc4)cc3)c2=O)S1 (stereo not drawn) [Example 17, 5-[1-(Biphenyl-4-ylmethyl)-2-oxo-1,2-dihydroquinolin-3-ylmethyl]thiazolidine-2,4-dione] |
| 213.2 to 213.7 °C | O=C1NC(=O)C(Cc2ccc3c(c2)N(Cc2ccc(-c4ccccc4)cc2)C(=O)CC3)S1 (stereo not drawn) [Example 18, 5-[1-(Biphenyl-4-ylmethyl)-2-oxo-1,2,3,4-tetrahydroquinolin-7-ylmethyl]thiazolidine-2,4-dione] |
| 246.5 to 246.6 °C | COc1ccc(CC2SC(=O)NC2=O)c2c1N(Cc1ccc([N+](=O)[O-])cc1)C(=O)CC2 (stereo not drawn) [Example 20, 5-[8-methoxy-1-(4-nitrobenzyl)-2-oxo-1,2,3,4-tetrahydroquinolin-5-ylmethyl]thiazolidine-2,4-dione] |
| 174.1 to 174.8 °C | COc1ccc(CC2SC(=O)NC2=O)c2c1N(Cc1ccc(N)cc1)C(=O)CC2 (stereo not drawn) [Example 21, 5-[1-(4-aminobenzyl)-8-methoxy-2-oxo-1,2,3,4-tetrahydroquinolin-5-ylmethyl]thiazolidine-2,4-dione] |
| 98 to 102 °C | CCCCCOC(=O)Nc1ccc(CN2C(=O)CCc3c(CC4SC(=O)NC4=O)ccc(OC)c32)cc1 (stereo not drawn) [Example 23, 5-[1-(4-pentyloxycarbonylaminobenzyl)-8-methoxy-2-oxo-1,2,3,4-tetrahydroquinolin-5-ylmethyl]thiazolidine-2,4-dione] |
| 243 to 244 °C | COc1ccc(CC2SC(=O)NC2=O)c2c1N(Cc1ccc(C(=O)Nc3ccc(C(C)C)cc3)cc1)C(=O)CC2 (stereo not drawn) [Example 27, 5-{1-[4-(4-isopropylphenylaminocarbonyl)benzyl]-8-methoxy-2-oxo-1,2,3,4-tetrahydroquinolin-5-ylmethyl}thiazolidine-2,4-dione] |
| 213.2 to 213.7 °C | O=C1NC(=O)C(Cc2ccc(O)c3c2CCC(=O)N3Cc2ccccc2)S1 (stereo not drawn) [Example 31, 5-(1-benzyl-8-hydroxy-2-oxo-1,2,3,4-tetrahydroquinolin-5-ylmethyl)thiazolidine-2,4-dione] |
| 251 to 255 °C | COc1ccc(CC2SC(=O)NC2=O)c2c1N(CC(=O)O)C(=O)CC2 (stereo not drawn) [Example 34, 5-(1-carboxymethyl-8-methoxy-2-oxo-1,2,3,4-tetrahydroquinolin-5-ylmethyl)thiazolidine-2,4-dione] |
